This passage reports TGI results from PubChem BioAssay (NCI).

Among the test systems are COLO 205 colon; NCI-H460 lung; NCI-H23 lung; SNB-75 CNS; EKVX NSCLC; UACC-257 melanoma; HCT-116 colon; LOX IMVI melanoma; CCRF-CEM leukemia; RPMI-8226 leukemia; K-562 leukemia; NCI-H226 lung; SK-OV-3 ovarian; UACC-62 melanoma; SNB-19 CNS; SF-539 CNS; CAKI-1 renal; TK-10 renal; KM12 colon; RXF 393 renal.
Common to all, as to assay: growth of human tumour cells (NCI), 48 h

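In this assay, cells in 96-well plates receive the compound at five concentrations for 48 hours. Endpoints are linearly interpolated between the surrounding concentrations. TGI: concentration producing complete growth inhibition.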 Bounds are passed on as bounds.

As for `C/C(=N\Nc1nc2cc(Cl)ccc2s1)c1ccccn1`, the TGI was over 60.4 µM with COLO 205 colon; over 100 µM in the test on NCI-H460 lung; 25.9 µM in the test on NCI-H23 lung; 31.3 µM with SNB-75 CNS; over 35.5 µM in the test on EKVX NSCLC; over 100 µM in the test with UACC-257 melanoma. Besides, the TGI with HCT-116 colon was over 100 µM; in the test with LOX IMVI melanoma, 13.5 µM; in the test with CCRF-CEM leukemia it was over 75.4 µM; with RPMI-8226 leukemia, over 32.4 µM; with K-562 leukemia, over 100 µM; in the test with NCI-H226 lung, over 100 µM. The TGI with SK-OV-3 ovarian was 33.6 µM; in the test with UACC-62 melanoma, 10.1 µM; in the test on SNB-19 CNS it was 15.6 µM; in the test with SF-539 CNS it was over 100 µM; in the test with CAKI-1 renal it was 46 µM; in the test on TK-10 renal it was over 100 µM. Besides, the TGI with KM12 colon was over 84.8 µM.

Turning to `CN(C)C(=O)Oc1c(Br)cc(Br)cc1C(=O)OCc1ccccc1`, the TGI with COLO 205 colon was 34 µM; in the test with NCI-H460 lung, 56.5 µM; with RXF 393 renal, over 75.6 µM; in the test with NCI-H23 lung, over 72.9 µM; in the test on SNB-75 CNS, 97 µM; with EKVX NSCLC it was over 100 µM. The TGI is 60.2 µM in the test with UACC-257 melanoma; 29 µM in the test on HCT-116 colon; 60.2 µM in the test on LOX IMVI melanoma; 68.3 µM in the test with CCRF-CEM leukemia; 52.4 µM in the test on RPMI-8226 leukemia; over 90.2 µM with K-562 leukemia. Also, the TGI in the test with NCI-H226 lung was over 77.3 µM; in the test with SK-OV-3 ovarian it was over 100 µM; in the test on UACC-62 melanoma, 39.4 µM; with SNB-19 CNS it was over 100 µM; with SF-539 CNS it was 53.4 µM; in the test on CAKI-1 renal, 68.6 µM. In the test with KM12 colon, this compound displayed a TGI of 75.9 µM.

Consider `COC1/C=C/C=C(/C)Cc2cc(O)c(Cl)c(c2)N(C)C(=O)CC(OC(=O)C(C)C)C2(C)OC2C(C)C2CC1(O)NC(=O)O2` (stereo not drawn), for which the TGI in the test with COLO 205 colon was 0.0104 µM; with RXF 393 renal it was over 100 µM; with NCI-H23 lung, under 0.01 µM; in the test on SNB-75 CNS it was 2.08 µM; with EKVX NSCLC it was over 100 µM; with UACC-257 melanoma it was over 100 µM. In addition, the TGI in the test on HCT-116 colon, with LOX IMVI melanoma, in the test with CCRF-CEM leukemia, with RPMI-8226 leukemia, with K-562 leukemia and with NCI-H226 lung was over 100 µM each time. Besides, the TGI was over 100 µM in the test with SK-OV-3 ovarian; over 100 µM with UACC-62 melanoma; over 100 µM in the test with SNB-19 CNS; over 100 µM with CAKI-1 renal; over 65.2 µM in the test with TK-10 renal.

Regarding `CCN1c2ccccc2NC(=S)c2c1n[nH]c2-c1ccccc1`, the TGI in the test on COLO 205 colon was over 100 µM; in the test with NCI-H460 lung, 77.2 µM; with RXF 393 renal it was over 100 µM; in the test with NCI-H23 lung, over 100 µM; in the test on SNB-75 CNS, over 100 µM; in the test with EKVX NSCLC, over 100 µM. The TGI in the test with UACC-257 melanoma is over 100 µM; in the test on HCT-116 colon it was over 100 µM; with LOX IMVI melanoma it was over 100 µM; in the test on CCRF-CEM leukemia it was 49.4 µM; in the test with RPMI-8226 leukemia, 43.9 µM; in the test with K-562 leukemia, 39.8 µM. Further, the TGI in the test on SK-OV-3 ovarian is over 100 µM; in the test on UACC-62 melanoma it was over 100 µM; in the test on SF-539 CNS, over 100 µM; in the test on CAKI-1 renal, over 100 µM; with TK-10 renal, over 100 µM; with KM12 colon it was 91.1 µM.

`CC(=O)C(=O)NC1/C=C(C)\C=C/C(O)C/C=C(C)\C=C/C(O)CC2OC(=O)C1(C)C(=O)C2C` (stereo not drawn): the TGI in the test on COLO 205 colon, with NCI-H460 lung, in the test on RXF 393 renal, in the test on NCI-H23 lung, with SNB-75 CNS and with EKVX NSCLC was over 100 µM in each case. Also, the TGI is over 100 µM in the test with UACC-257 melanoma; over 100 µM in the test with HCT-116 colon; over 100 µM in the test with LOX IMVI melanoma; over 100 µM in the test on CCRF-CEM leukemia; 98.9 µM in the test with RPMI-8226 leukemia; over 100 µM with K-562 leukemia. Besides, the TGI with NCI-H226 lung, with SK-OV-3 ovarian, with UACC-62 melanoma, in the test on SNB-19 CNS, in the test on SF-539 CNS and in the test with CAKI-1 renal was over 100 µM each time. The compound further gave a TGI with KM12 colon of over 100 µM.

Regarding `CC1(C)OC[C@H](C(=N)OCc2ccccc2)O1`, the TGI in the test on COLO 205 colon, with NCI-H460 lung, in the test with RXF 393 renal, in the test with NCI-H23 lung, with SNB-75 CNS and in the test on EKVX NSCLC was over 100 µM each time. The TGI with UACC-257 melanoma, in the test on HCT-116 colon, in the test with CCRF-CEM leukemia, in the test with RPMI-8226 leukemia, with K-562 leukemia and in the test with NCI-H226 lung was over 100 µM in each case. Also, the TGI with SK-OV-3 ovarian, with UACC-62 melanoma, in the test on SNB-19 CNS, with SF-539 CNS, in the test with CAKI-1 renal and in the test with TK-10 renal was over 100 µM throughout. In the test on KM12 colon, this compound registered a TGI of over 100 µM.

With `O=C1CC(/C=C/c2ccco2)=C(O)C1=O`, the TGI amounted to 29.2 µM with COLO 205 colon; 35.6 µM in the test on NCI-H460 lung; 21.7 µM in the test with RXF 393 renal; 27.2 µM in the test with NCI-H23 lung; 32.9 µM with SNB-75 CNS; 37.6 µM in the test with EKVX NSCLC. Further, the TGI in the test with UACC-257 melanoma worked out at 33.2 µM; in the test with HCT-116 colon, 30.4 µM; in the test with LOX IMVI melanoma, 25.4 µM; in the test with CCRF-CEM leukemia, 8.68 µM; in the test with RPMI-8226 leukemia, 40.2 µM; with K-562 leukemia, 49 µM. Further, the TGI with NCI-H226 lung is 69.1 µM; with SK-OV-3 ovarian, 54.5 µM; in the test with UACC-62 melanoma, 30.1 µM; in the test on SNB-19 CNS, 30.9 µM; in the test on SF-539 CNS it was 31.1 µM; in the test on CAKI-1 renal, 34.6 µM. Besides, the TGI with TK-10 renal turned out to be 44.2 µM; with KM12 colon, 27.6 µM.

Take `CCOC(=O)c1nc2ccc(OC)cc2c2c1Cc1ccccc1-2`: the TGI with COLO 205 colon was over 100 µM; in the test on NCI-H460 lung, over 100 µM; in the test with RXF 393 renal, 71.6 µM; in the test on NCI-H23 lung, over 100 µM; with SNB-75 CNS it was over 100 µM; with UACC-257 melanoma, over 100 µM. Besides, the TGI with HCT-116 colon, in the test with LOX IMVI melanoma, with RPMI-8226 leukemia, in the test on K-562 leukemia, with NCI-H226 lung and in the test with UACC-62 melanoma was over 100 µM each time. In addition, the TGI with SNB-19 CNS, in the test with SF-539 CNS, in the test on CAKI-1 renal, in the test with TK-10 renal and with KM12 colon was over 100 µM each time.
